Assay results: ChEMBL document CHEMBL1147975, “Synthesis, structure, and structure-activity relationship analysis of enamines as potential antibacterials” (2007)
Values after ≈ are worked out from the molar mass of the structure shown.

Tests used:
Type in all cases: functional
Bacillus subtilis = experiment: Antibacterial activity against Bacillus subtilis ATCC 6633 after 24 hrs by MTT method; settings: ATCC 6633, 24 h
Escherichia coli = experiment: Antibacterial activity against Escherichia coli ATCC 35218 after 24 hrs by MTT method; settings: ATCC 35218, 24 h
Pseudomonas fluorescens = experiment: Antibacterial activity against Pseudomonas fluorescens ATCC 13525 after 24 hrs by MTT method; settings: ATCC 13525, 24 h
Staphylococcus aureus = experiment: Antibacterial activity against Staphylococcus aureus ATCC 6538 after 24 hrs by MTT method; settings: ATCC 6538, 24 h
Aspergillus niger = experiment: Antifungal activity against Aspergillus niger ATCC 16404 after 48 hrs by MTT method; settings: ATCC 16404, 48 h
Candida albicans = experiment: Antifungal activity against Candida albicans ATCC 10231 after 48 hrs by MTT method; settings: ATCC 10231, 48 h
Trichophyton rubrum = experiment: Antifungal activity against Trichophyton rubrum ATCC 10218 after 48 hrs by MTT method; settings: ATCC 10218, 48 h

Row | SMILES | MIC (Bacillus subtilis) [µg/mL] | MIC (Escherichia coli) [µg/mL] | MIC (Pseudomonas fluorescens) [µg/mL] | MIC (Staphylococcus aureus) [µg/mL] | MIC (Aspergillus niger) [µg/mL] | MIC (Candida albicans) [µg/mL] | MIC (Trichophyton rubrum) [µg/mL]
1 | CCOC(=O)/C(=C/Nc1cc(F)cc(F)c1)c1ccc(OC)cc1 | > 50 | > 50 | 31.5 (≈ 94.5 µM) | 22.8 (≈ 68.4 µM) | > 50 | > 50 | 
2 | CCOC(=O)/C(=C\Nc1ccc(O)cc1)c1ccc(OC)cc1 | > 50 | > 50 | > 50 | 7.9 (≈ 25.2 µM) | > 50 | > 50 | 
3 | CCOC(=O)/C(=C\Nc1ccc(Cl)cc1)c1ccc(Cl)cc1 | > 50 | > 50 | 32.2 (≈ 95.8 µM) | > 50 | > 50 | > 50 | 
4 | CCOC(=O)/C(=C\Nc1ccc(C)cc1)c1ccc(Cl)cc1 | > 50 | > 50 | > 50 | > 50 | > 50 | > 50 | 
5 | CCOC(=O)/C(=C/Nc1cc(Br)c(OC)c(Br)c1)c1ccc(OC)cc1 | > 50 | > 50 | 33 (≈ 68 µM) | > 50 | > 50 | > 50 | 
6 | CCOC(=O)/C(=C\Nc1cc(OC)cc(OC)c1)c1ccc(OC)cc1 | > 50 | > 50 | 30 (≈ 83.9 µM) | 43.5 (≈ 122 µM) | > 50 | > 50 | 
7 | CCOC(=O)/C(=C/Nc1cc(OC)cc(OC)c1)c1ccc(OC)cc1 | > 50 | 41.5 (≈ 116 µM) | 25.2 (≈ 70.5 µM) | 15.8 (≈ 44.2 µM) | > 50 | > 50 | 
8 | CCOC(=O)/C(=C/Nc1ccc(C)cc1)c1ccc(Cl)cc1 | > 50 | > 50 | > 50 | 0.9 (≈ 2.85 µM) |  | > 50 | 
9 | CCOC(=O)/C(=C/Nc1cc(Cl)cc(Cl)c1)c1ccc(OC)cc1 | 42.2 (≈ 115 µM) | 42.2 (≈ 115 µM) | 27.8 (≈ 75.9 µM) | 20.2 (≈ 55.2 µM) | > 50 | > 50 | 
10 | CCOC(=O)/C(=C\Nc1cc(Br)c(OC)c(Br)c1)c1ccc(OC)cc1 | > 50 | > 50 | > 50 | > 50 | > 50 | > 50 | > 50
11 | CCOC(=O)/C(=C\Nc1cc(Cl)cc(Cl)c1)c1ccc(Cl)cc1 | > 50 | > 50 | > 50 | > 50 | > 50 | > 50 | 
12 | CCOC(=O)/C(=C/Nc1cc(Cl)cc(Cl)c1)c1ccc(Cl)cc1 | > 50 | > 50 | 25.7 (≈ 69.3 µM) | 1.1 (≈ 2.97 µM) | > 50 | > 50 | 
13 | CCOC(=O)/C(=C\Nc1ccccc1Cl)c1ccc(Cl)cc1 | > 50 | 42.5 (≈ 126 µM) | > 50 | > 50 | > 50 | > 50 | 
14 | CCOC(=O)/C(=C/Nc1ccc(O)cc1)c1ccc(OC)cc1 | > 50 | > 50 | > 50 | 3.8 (≈ 12.1 µM) | > 50 | > 50 | 
15 | CCOC(=O)/C(=C/Nc1ccccc1Cl)c1ccc(Cl)cc1 | 43.8 (≈ 130 µM) | 38.8 (≈ 115 µM) | 35.3 (≈ 105 µM) | > 50 | > 50 | > 50 | 
16 | CCOC(=O)/C(=C\Nc1cc(F)cc(F)c1)c1ccc(Cl)cc1 | > 50 | > 50 | > 50 | > 50 | > 50 | > 50 | 
17 | CCOC(=O)/C(=C/Nc1cc(F)cc(F)c1)c1ccc(Cl)cc1 | 48.2 (≈ 143 µM) | > 13.5 | 31.5 (≈ 93.3 µM) | 1.9 (≈ 5.63 µM) | > 50 | > 50 | 
18 | CCOC(=O)/C(=C/Nc1ccc(Br)cc1)c1ccc(Cl)cc1 | > 50 | > 50 | > 50 | > 50 | > 50 | > 50 | 
19 | CCOC(=O)/C(=C\Nc1cc(Cl)cc(Cl)c1)c1ccc(OC)cc1 | > 50 | > 50 | 33.8 (≈ 92.3 µM) | > 50 | > 50 | > 50 | 
20 | CCOC(=O)/C(=C\Nc1ccc(Br)cc1)c1ccc(Cl)cc1 | > 50 | > 50 | > 50 | > 50 | > 50 | > 50 | 
21 | CCOC(=O)/C(=C/Nc1ccc(Br)cc1)c1ccc(OC)cc1 | > 50 | > 50 | 31.7 (≈ 84.3 µM) | > 50 | > 50 | > 50 | 
22 | CCOC(=O)/C(=C\Nc1ccc(Br)cc1)c1ccc(OC)cc1 | > 50 | > 50 | > 50 | > 50 | > 50 | > 50 | 
23 | CCOC(=O)/C(=C/Nc1ccc(Cl)cc1)c1ccc(Cl)cc1 | 42 (≈ 125 µM) | 42.5 (≈ 126 µM) | 29.5 (≈ 87.7 µM) | > 50 | > 50 | > 50 | 
24 | CCOC(=O)/C(=C\Nc1cc(F)cc(F)c1)c1ccc(OC)cc1 | > 50 | > 50 | > 50 | > 50 | > 50 | > 50 | 
25 | NC[C@H]1O[C@H](O[C@H]2[C@H](O)[C@@H](O[C@H]3O[C@H](CO)[C@@H](O)[C@H](N)[C@H]3O)[C@H](N)C[C@@H]2N)[C@H](O)[C@@H](O)[C@@H]1O [KANAMYCIN] | 0.39 (≈ 0.805 µM) | 3.9 (≈ 8.05 µM) | 3.9 (≈ 8.05 µM) | 1 (≈ 2.06 µM) |  |  | 
